From ChEMBL document CHEMBL1127297, “Isolation and structure/activity features of halomon-related antitumor monoterpenes from the red alga Portieria hornemannii” (1994)

Legend:
[1] = test system: Tumor Cell line; experiment: Tested for in vitro cytotoxicity of 60 human tumor cell lines in National Cancer Institute (NCI); type: functional
[2] = test system: Tumor Cell line; experiment: Tested for in vitro cytotoxicity of 60 human tumor cell lines in National Cancer Institute (NCI) and the value was expressed as LC50; type: functional; details: read-out: LC50 (the source's name)

## CC1(C)C(Cl)CC(Br)/C(=C\CCl)C1Cl (stereo unspecified)
[1]
  GI50: 1.15 µM
  TGI: 4.68 µM
[2]
  CC50: 20 µM

## C=C(Cl)[C@](Cl)(CBr)CCC(Br)=C(C)C
[1]
  GI50: 0.691 µM
  TGI: 3.02 µM
[2]
  CC50: 13.5 µM

## C=C(Cl)/C(=C\Br)CCC=C(C)C
[1]
  GI50: 19.5 µM
  TGI: 44.7 µM
[2]
  CC50: > 100 µM

## C=CC(Cl)(CBr)CCC=C(C)C (stereo unspecified)
[1]
  GI50: 33.1 µM
  TGI: > 100 µM
[2]
  CC50: > 100 µM

## C=C(Cl)[C@](Cl)(CBr)CCC=C(C)C
[1]
  GI50: 47 µM
  TGI: > 100 µM
[2]
  CC50: > 100 µM

## C=C(Cl)[C@](Cl)(CBr)CC[C@@H](Br)C(C)(C)Cl [HALOMON]
[1]
  GI50: 0.676 µM
  TGI: 3.02 µM
[2]
  CC50: 11.5 µM

## C=CC1=CCC(Br)C(C)(C)C1Cl (stereo unspecified)
[1]
  GI50: > 100 µM
  TGI: > 100 µM
[2]
  CC50: > 100 µM

## C=C[C@](Cl)(CBr)CC[C@@H](Br)C(C)(C)Cl
[1]
  GI50: 26.1 µM
  TGI: 77 µM
[2]
  CC50: > 100 µM

## CC1(C)C(Br)=C(C(Cl)CBr)CCC1Br (stereo unspecified)
[1]
  GI50: 21.9 µM
  TGI: 45.7 µM
[2]
  CC50: 93.3 µM

## C=C(Cl)[C@](Cl)(CBr)CCC(Cl)=C(C)C
[1]
  GI50: 0.741 µM
  TGI: 3.39 µM
[2]
  CC50: 17 µM

## CC1(C)[C@H](Cl)C=C/C(=C\CCl)[C@@H]1Cl
[1]
  GI50: 20 µM
  TGI: 47.9 µM
[2]
  CC50: > 100 µM

## C=C(Cl)[C@](Cl)(CBr)CC[C@H](Cl)C(C)(C)Br
[1]
  GI50: 1.32 µM
  TGI: 4.47 µM
[2]
  CC50: 16.2 µM
